Read-outs that look alike come from different tables or passages of the source.
Tests used:
MMP-9 = biological target: T1, MMP-9 (Homo sapiens, UniProt P14780); test: MMP-9 inhibition assay (fluorogenic peptide substrate); type: biochemical; set-up: remaining enzyme activity (% of control): scale not given here; details: for remaining enzyme activity (% of control): MMP-9; for IC50: n.d: not detected
T1 construct: purchased Sino Biological 10327-HNAH
How it was run: (§1)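 Human proMMP-2 and proMMP-9 were activated with 1 mM APMA for 2 h at 37 °C, then used at 6.5 nM (MMP-2) or 10 nM (MMP-9) final in Tris/NaCl/CaCl2/Brij 35 buffer, pH 7.5. After 30 min preincubation with compound at RT, 25 μM FRET peptide substrate was added and fluorescence (ex 280/em 360 nm) followed for 30 min. IC50 came from logistic fits of Vmax.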

MMP-2 = biological target: T2, MMP-2 (Homo sapiens, UniProt P08253); test: MMP-2 inhibition assay (fluorogenic peptide substrate); type: biochemical; details: for remaining activity (%): MMP-2; for IC50: n.d: not detected
T2 construct: purchased Sino Biological 10082-HNAH
T2 sequence (P08253 110-660): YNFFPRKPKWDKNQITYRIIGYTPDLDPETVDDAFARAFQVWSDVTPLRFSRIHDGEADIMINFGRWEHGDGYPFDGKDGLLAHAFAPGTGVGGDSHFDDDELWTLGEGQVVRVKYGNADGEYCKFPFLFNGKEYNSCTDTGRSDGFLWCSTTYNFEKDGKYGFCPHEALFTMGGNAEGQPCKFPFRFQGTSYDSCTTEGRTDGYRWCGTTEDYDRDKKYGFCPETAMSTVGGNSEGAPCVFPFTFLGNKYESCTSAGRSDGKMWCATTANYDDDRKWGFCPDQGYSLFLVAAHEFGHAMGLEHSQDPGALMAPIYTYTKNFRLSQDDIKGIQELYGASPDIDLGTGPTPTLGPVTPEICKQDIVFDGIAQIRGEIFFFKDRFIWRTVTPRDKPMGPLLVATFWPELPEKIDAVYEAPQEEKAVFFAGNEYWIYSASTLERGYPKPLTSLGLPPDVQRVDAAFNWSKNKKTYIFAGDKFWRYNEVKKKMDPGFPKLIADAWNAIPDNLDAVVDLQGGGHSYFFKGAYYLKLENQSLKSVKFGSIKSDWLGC
How it was run: as §1

[1] = Figure 5d, fragment combination joined by linker, read-out: MMP9 IC50
[2] = Figure 5d, fragment combination joined by linker, read-out: MMP2 IC50

T1 sequence (P14780 107-707 limits assumed): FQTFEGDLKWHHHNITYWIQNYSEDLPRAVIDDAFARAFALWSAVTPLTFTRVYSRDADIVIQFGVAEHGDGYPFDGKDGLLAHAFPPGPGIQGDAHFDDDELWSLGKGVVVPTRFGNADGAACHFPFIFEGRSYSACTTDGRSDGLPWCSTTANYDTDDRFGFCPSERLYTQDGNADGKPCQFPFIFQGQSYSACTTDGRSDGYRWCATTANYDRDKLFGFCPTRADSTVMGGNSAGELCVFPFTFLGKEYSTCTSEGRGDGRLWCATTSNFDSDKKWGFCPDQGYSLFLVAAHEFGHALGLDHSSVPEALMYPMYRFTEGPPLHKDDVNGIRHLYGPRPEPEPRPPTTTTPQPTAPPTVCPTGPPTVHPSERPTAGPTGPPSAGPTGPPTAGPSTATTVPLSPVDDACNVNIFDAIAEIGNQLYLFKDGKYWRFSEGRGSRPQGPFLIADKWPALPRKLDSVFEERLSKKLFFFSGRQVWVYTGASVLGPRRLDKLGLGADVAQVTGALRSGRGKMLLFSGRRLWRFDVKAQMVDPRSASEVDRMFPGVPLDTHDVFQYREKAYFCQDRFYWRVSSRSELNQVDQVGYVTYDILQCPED

Row | Structure (SMILES) | remaining activity (%) (MMP-2; concentration 1.95 µM) | IC50 (MMP-9; [1]) | IC50 (MMP-2; [2]) | remaining enzyme activity (% of control) (MMP-9; concentration 0.12 µM) | remaining enzyme activity (% of control) (MMP-9; concentration 0.49 µM) | remaining enzyme activity (% of control) (MMP-9; concentration 1.95 µM) | remaining enzyme activity (% of control) (MMP-9; concentration 7.81 µM) | remaining enzyme activity (% of control) (MMP-9; concentration 31.25 µM) | remaining enzyme activity (% of control) (MMP-9; concentration 125.00 µM) | remaining enzyme activity (% of control) (MMP-9; concentration 500.00 µM) | remaining activity (%) (MMP-2; concentration 0.12 µM) | remaining activity (%) (MMP-2; concentration 0.49 µM) | remaining activity (%) (MMP-2; concentration 7.81 µM) | remaining activity (%) (MMP-2; concentration 31.25 µM) | remaining activity (%) (MMP-2; concentration 125.00 µM) | remaining activity (%) (MMP-2; concentration 500.00 µM) | other results
1 | Cc1cc(=O)[nH]c(-n2nc(C)c(CCC(=O)NCCNC(=O)CSCCNC(=O)c3cncc(O)c3)c2C)n1 [693+828 Linker 24] | 86.92 |  |  |  |  |  |  |  |  |  |  |  |  |  |  |  | remaining enzyme activity (% of control) (MMP-9; concentration 0.04 µM): 101.25; remaining enzyme activity (% of control) (MMP-9; concentration 0.21 µM): 90.43; remaining enzyme activity (% of control) (MMP-9; concentration 1.04 µM): 102.01; remaining enzyme activity (% of control) (MMP-9; concentration 5.19 µM): 89.02; remaining enzyme activity (% of control) (MMP-9; concentration 25.96 µM): 79.56; remaining enzyme activity (% of control) (MMP-9; concentration 129.80 µM): 32.87; remaining enzyme activity (% of control) (MMP-9; concentration 649.00 µM): 0.00; IC50 (MMP-9; mean ± SE, Fig. 5e prints no unit, µM, read-out: IC50): 80.5 ± 15.2 µM; remaining activity (%) (MMP-2; concentration 0.0156 µM): 100.00; remaining activity (%) (MMP-2; concentration 0.08 µM): 92.98; remaining activity (%) (MMP-2; concentration 0.39 µM): 98.13; remaining activity (%) (MMP-2; concentration 9.75 µM): 82.64; remaining activity (%) (MMP-2; concentration 48.76 µM): 53.90; remaining activity (%) (MMP-2; concentration 243.80 µM): 16.08; remaining activity (%) (MMP-2; concentration 1219.00 µM): 0.00; IC50 (MMP-2; mean ± SE, Fig. 5d unit inferred, µM, read-out: IC50): 59.9 ± 15.7 µM
2 | Cc1cc(=O)[nH]c(-n2nc(C)c(CCC(=O)NCc3c[nH]nn3)c2C)n1 [693_787 1] |  | 312 µM | 204 µM |  |  |  |  |  |  |  |  |  |  |  |  |  | 
3 | O=C(Cn1cnc2c(oc3ccccc32)c1=O)NCCOCCOCCNC(=O)c1cncc(O)c1 [182_828 10] |  | 99.6 µM | 43 µM |  |  |  |  |  |  |  |  |  |  |  |  |  | 
4 | Cn1c(O)nc2cc(C(=O)NCCCCCCCCNC(=O)CNC(=O)NC34CC5CC(CC(C5)C3)C4)cnc21 [66+826 Linker 4] | 98.21 |  |  | 93.59 | 93.14 | 89.16 | 98.12 | 95.00 | 90.00 | 85.00 | 90.87 | 97.75 | 97.67 | 98.57 | 99.42 | 77.03 | 
5 | Cc1cc(=O)[nH]c(-n2nc(C)c(CCC(=O)NCCCCCCCCNC(=O)c3cnc4c(c3)nc(O)n4C)c2C)n1 [693+826 Linker 4] | 95.29 |  |  | 100.31 | 99.68 | 96.18 | 93.00 | 90.00 | 80.00 | 69.08 | 91.52 | 100.66 | 98.79 | 92.06 | 94.34 | 70.32 | 

— publication PMC10023787, “Trio-pharmacophore DNA-encoded chemical library for simultaneous selection of fragments and linkers” (Nature Communications, 2023)
